Test results: ChEMBL document CHEMBL3351946, “Design and synthesis of potent antitumor water-soluble phenyl N-mustard-benzenealkylamide conjugates via a bioisostere approach” (Eur J Med Chem, 2014)
pIC50: −log10 of the molar value. Calls of active or inactive are those of the source. The rule behind the calls is not given here.

What was measured:
[1] = Cell cycle arrest in human HCT116 cells assessed as accumulation at S phase at 2 uM after 48 hrs by FACS flow cytometric analysis (reference value: 12.11 +/- 4.28%); format: functional, cell-based; details: HCT-116
[2] = Antitumor activity against human PC3 cells xenografted in nude mouse assessed as tumor growth inhibition at 50 mg/kg,iv administered every 2 days for 5 doses measured on day 24 to 28 relative to control; format: functional, PC-3
PC-3 [3] = test: Antitumor activity against human PC3 cells xenografted in iv dosed nude mouse assessed as tumor growth inhibition; format: functional, organism-based
[4] = Cell cycle arrest in human HCT116 cells assessed as accumulation at sub-G1 phase at 1 uM after 72 hrs by FACS flow cytometric analysis (reference value: 3.29 +/- 1.39%); format: functional, cell-based; details: HCT-116
Mus musculus [5] = test: Toxicity in iv dosed CD-1 (ICR) mouse assessed as soft feces measured for 14 days; format: organism-based; details: in vivo, 336 h
Mus musculus [6] = test: Toxicity in nude mouse xenografted with human PC3 cells assessed as change in body weight at 50 mg/kg,iv administered every 2 days for 5 doses measured on day 38 relative to control; format: organism-based, PC-3; parameters: dose 50 mg/kg; details: in vivo, 48 h
[7] = Antitumor activity against human HCT116 cells xenografted in nude mouse assessed as tumor growth inhibition at 75 mg/kg,[…] ip administered every 7 days for 2 doses relative to control; format: functional; details: HCT-116, ip, 168 h, route intraperitoneal, read-out: TGI
Mus musculus [8] = test: Toxicity in iv dosed CD-1 (ICR) mouse assessed as swelling of mouth measured for 14 days; format: organism-based; details: in vivo, 336 h
[9] = Cell cycle arrest in human HCT116 cells assessed as accumulation at S phase at 1 uM after 72 hrs by FACS flow cytometric analysis (reference value: 7.49 +/- 0.95%); format: functional, cell-based; details: HCT-116
[10] = Cell cycle arrest in human HCT116 cells assessed as accumulation at G2/M phase at 1 uM after 48 hrs by FACS flow cytometric analysis (reference value: 23.95 +/- 1.87%); format: functional, cell-based; details: HCT-116
[11] = Cell cycle arrest in human HCT116 cells assessed as accumulation at sub-G1 phase at 4 uM after 48 hrs by FACS flow cytometric analysis (reference value: 1.65 +/- 0.06%); format: functional, cell-based; details: HCT-116
Mus musculus [12] = test: Induction of apoptosis in HCT116 cells xenografted in nude mouse at 30 mg/kg, iv qd administered for 6 days measured 24 hrs post last dose by TUNEL assay; format: functional, organism-based; parameters: dose 30 mg/kg; details: HCT-116
[13] = Cell cycle arrest in human HCT116 cells assessed as accumulation at G2/M phase at 1 uM after 24 hrs by FACS flow cytometric analysis (reference value: 31.55 +/- 4.63%); format: functional, cell-based; details: HCT-116
[14] = Cell cycle arrest in human HCT116 cells assessed as accumulation at G2/M phase at 2 uM after 48 hrs by FACS flow cytometric analysis (reference value: 23.95 +/- 1.87%); format: functional, cell-based; details: HCT-116
[15] = Cell cycle arrest in human HCT116 cells assessed as accumulation at S phase at 2 uM after 24 hrs by FACS flow cytometric analysis (reference value: 18.71 +/- 2.25%); format: functional, cell-based; details: HCT-116
HT-29 = test: Cytotoxicity against human HT-29 cells assessed as growth inhibition after 72 hrs by Alamar Blue assay; format: functional, cell-based; details: HT-29, 72 h
[16] = Antitumor activity against human H460 cells xenografted in nude mouse assessed as tumor growth inhibition at 30 mg/kg,iv qd administered for 6 days measured on day 37 relative to control; format: functional; details: NCI-H460, iv, read-out: TGI
[17] = Terminal half life in Sprague-Dawley rat at 5 mg/kg, iv; format: ADME, organism-based; parameters: dose 5 mg/kg, route intravenous; details: in vivo, read-out: beta t1/2 (converted)
Mus musculus [18] = test: Toxicity in CD-1 (ICR) mouse assessed as decrease in food consumption at 75 to 105 mg/kg, iv measured on day 8; format: organism-based; parameters: dose 75-105 mg/kg, route intravenous; details: in vivo
[19] = Cell cycle arrest in human HCT116 cells assessed as accumulation at G1 phase at 2 uM after 24 hrs by FACS flow cytometric analysis (reference value: 48.75 +/- 3.69%); format: functional, cell-based; details: HCT-116
[20] = Cell cycle arrest in human HCT116 cells assessed as accumulation at G2/M phase at 4 uM after 24 hrs by FACS flow cytometric analysis (reference value: 31.55 +/- 4.63%); format: functional, cell-based; details: HCT-116
[21] = Induction of pEGFP-N1 DNA (unknown origin) interstand crosslinking after 2 hrs by alkaline agarose gel shift assay
Mus musculus [22] = test: Induction of apoptosis in HCT116 cells xenografted in nude mouse at 30 mg/kg, iv qd administered for 6 days measured 24 hrs post last dose by hematoxylin and eosin staining; format: functional, organism-based; parameters: dose 30 mg/kg; details: HCT-116
[23] = Terminal half life in Sprague-Dawley rat at 50 mg/kg, po; format: ADME, organism-based; parameters: dose 50 mg/kg, route oral; details: in vivo, read-out: beta t1/2 (converted)
[24] = Cell cycle arrest in human HCT116 cells assessed as accumulation at S phase at 4 uM after 72 hrs by FACS flow cytometric analysis (reference value: 7.49 +/- 0.95%); format: functional, cell-based; details: HCT-116
[25] = Antitumor activity against human HCT116 cells xenografted in nude mouse assessed as tumor growth inhibition at 30 mg/kg,iv qd administered for 6 days measured on day 31 relative to control; format: functional; details: HCT-116, iv, read-out: TGI
[26] = Cell cycle arrest in human HCT116 cells assessed as accumulation at G2/M phase at 2 uM after 72 hrs by FACS flow cytometric analysis (reference value: 12.82 +/- 2.19%); format: functional, cell-based; details: HCT-116
PC-3 [27] = test: Antitumor activity against human PC3 cells xenografted in nude mouse assessed as survival at 30 mg/kg,iv qd administered for 6 days; format: functional, organism-based; parameters: dose 30 mg/kg
[28] = Cell cycle arrest in human HCT116 cells assessed as accumulation at G1 phase at 1 uM after 48 hrs by FACS flow cytometric analysis (reference value: 62.16 +/- 5.94%); format: functional, cell-based; details: HCT-116
[29] = Cell cycle arrest in human HCT116 cells assessed as accumulation at sub-G1 phase at 2 uM after 72 hrs by FACS flow cytometric analysis (reference value: 3.29 +/- 1.39%); format: functional, cell-based; details: HCT-116
Mus musculus [30] = test: Toxicity in iv dosed CD-1 (ICR) mouse assessed as swelling of nose measured for 14 days; format: organism-based; details: in vivo, 336 h
[31] = Cell cycle arrest in human HCT116 cells assessed as accumulation at sub-G1 phase at 2 uM after 48 hrs by FACS flow cytometric analysis (reference value: 1.65 +/- 0.06%); format: functional, cell-based; details: HCT-116
PC-3 [32] = test: Antitumor activity against human PC3 cells xenografted in nude mouse assessed as survival at 40 mg/kg,iv administered every 2 days for 5 doses; format: functional, organism-based; parameters: dose 40 mg/kg
HCT-116 = test: Induction of apoptosis in human HCT116 cells assessed as PARP cleavage at 1 to 4 uM after 24 hrs by Western blot analysis; format: functional, cell-based
[33] = Cell cycle arrest in human HCT116 cells assessed as accumulation at G1 phase at 4 uM after 24 hrs by FACS flow cytometric analysis (reference value: 48.75 +/- 3.69%); format: functional, cell-based; details: HCT-116
[34] = Cytotoxicity against human HCT116 cells assessed as growth inhibition after 72 hrs by Alamar Blue assay; format: functional, cell-based; details: HCT-116, 72 h
[35] = Antitumor activity against human PC3 cells xenografted in nude mouse assessed as tumor growth inhibition at 40 mg/kg,iv administered every 2 days for 5 doses measured on day 21 relative to control; format: functional, PC-3

CCN(CC)CC(=O)Nc1ccc(NC(=O)Nc2ccc(N(CCCl)CCCl)cc2)cc1
Activity [1]: 11.9%
%max [2]: 88%
TGI (PC-3 [3]): Dose-dependent effect
Activity [4]: 12.4%
Activity (Mus musculus [5]): Dose-dependent effect
Activity (Mus musculus [6]): -8%
inhibition in vivo at 75 mg/kg [7]: 54%
Activity (Mus musculus [8]): Dose-dependent effect
Activity [9]: 11.7%
Activity [10]: 28.2%
Activity [11]: 10.5%
Activity (Mus musculus [12]): Active
Activity [13]: 63.2%
Activity [14]: 28.2%
Activity [15]: 23.9%
pIC50 (HT-29): 4.72
inhibition in vivo at 30 mg/kg [16]: 53%
half-life [17]: 21.6 min
Activity (Mus musculus [18]): Toxic
Activity [19]: 11.8%
Activity [20]: 56.3%
Activity [21]: Dose-dependent effect
Activity (Mus musculus [22]): Active
half-life [23]: 60.6 min
Activity [24]: 19.8%
inhibition in vivo at 30 mg/kg [25]: 84%
Activity [26]: 29.2%
Activity (PC-3 [27]): Active
Activity [28]: 49.6%
Activity [29]: 19.7%
Activity (Mus musculus [30]): Dose-dependent effect
Activity [31]: 8.48%
Activity (PC-3 [32]): Active
Activity (HCT-116): Active
Activity [33]: 12.8%
pIC50 [34]: 6.09
%max [35]: 68%
